Assay results reported in patent US10344330B2, “Glatiramer acetate response biomarker mRNA potency assay” (Mylan Inc., priority 2013, dated 2019).

B1: MBP: myelin basic protein, a negative control (protein, UniProt P02686 1-304, looked up)
Myelin basic protein: MGNHAGKRELNAEKASTNSETNRGESEKKRNLGELSRTTSEDNEVFGEADANQNNGTSSQDTAVTDSKRTADPKNAWQDAHPADPGSRPHLIRLFSRDAPGREDNTFKDRPSESDELQTIQEDSAATSESLDVMASQKRPSQRHGSKYLATASTMDHARHGFLPRHRDTGILDSIGRFFGGDRGAPKRGSGKDSHHPARTAHYGSLPQKSHGRTQDENPVVHFFKNIVTPRTPPPSQGKGRGLSLSRFSWGAEGQRPGFGYGGRASDYKSAHKGFKGVDAQGTLSKIFKLGGRDSRSGSPMARR

How the values were obtained:
[1] = tested on: mouse IFN-γ mRNA in primary LN cells; experiment: Validation: mouse IFN-γ mRNA by real-time PCR in LN cells of GA-immunized SJL/J mice (Example IV); type: cell-based; settings: for IFN-γ mRNA Fold Change: normalized to GAPDH
Experimental: Three experiments were conducted using one batch of GA (Mylan GMA). The primary LN cells were stimulated by incubation with 6 concentrations (0.3 to 20 μg/mL) of the GA for 6 hours at 37° C. Total RNA was isolated from LN cells stimulated with GA or controls. cDNA was synthesized from the RNA and the mRNA levels of seven mouse cytokines, IL-2, IL-4, IL-5, IL-10, IL-13, interferon (IFN)-γ and tumor necrosis factor (TNF)-α, were quantitatively measured by a real-time PCR method.
Female SJL/J mice at 8-9 weeks of age were immunized by injection into four footpads using a 1 mL syringe with a 27-G, ½-inch needle. Each mouse received a total injection volume of 0.1 mL of GMA emulsified in CFA (about 10 μL into each of the front footpads and 40 μL into each of the hind footpads). Animals were immunized on Day 0. After injection, animals were placed back in their cages and housed ≤6 animals per cage.
Immunized animals were sacrificed by cervical dislocation on Day 10 following immunization. […] After centrifugation at about 200×g for 10 minutes at 4° C., the cell pellet was re-suspended in 40 mL of DCCM-1 medium for cell counting. A Trypan blue exclusion method was used to determine the cell density of viable cells in the suspension. After cell counting, the LN cells were suspended in enriched DCCM-1 medium at density of 7.5×10^6 cells/mL. LN cells (0.12 mL) were plated into each well of 96-well tissue culture plates.
Dilutions of GA (Mylan GMA) were prepared using enriched DCCM-1 medium as the diluent. GA dilutions (0.12 mL) were added in the assigned wells of 96-well tissue culture plates. The same volume of LN cells (0.12 mL) isolated from immunized animals was added to the assigned wells. A positive control and a negative control were always performed in the same assay by treating LN cells with 2.5 μg/mL ConA and 10 μg/mL MBP, respectively. The LN cells with mock stimulation protocols (enriched DCCM-1 medium) were used to monitor the background mRNA level of a cytokine. The plates were incubated at 37° C. in a humidified 5% CO2 incubator for 6 hr.
At the end of incubation time, culture medium from stimulated cells was removed by aspiration and the cells were lysed using Qiagen or Promega lysis buffer. The lysate was transferred to an RNeasy Mini column (Qiagen) or wells of the SV 96 Binding Plate (Promega) for RNA isolation and cDNA synthesis. All tested samples were run in triplicate.
The SV 96 Total RNA Isolation System (Promega; Cat. No. Z3505) was used for total RNA isolation. Assay procedures were carried out according to each manufacturer's protocol. RNA samples were stored at −70° C. until use. […] The assay procedure was carried out according to the manufacturer's protocol.
The plate was centrifuged at 2000 rpm for 2 minutes at 4° C. to spin down the contents and eliminate air bubbles. Samples were prepared and run in a 96-well plate using a Life Technologies Real-Time PCR system (previously Applied Biosystems; Model No. 7500) according to the manufacturer's recommendation. The mix for the reference gene was prepared in the same way using the reference gene primer.
A relative quantitation method was used to analyze changes in mIL-2, mIL-4, mIL-5, mIL-10, mIL-13, mIFN-γ and TNF-α expression in GA treated samples relative to the untreated control (Enriched DCCM-1 treated) samples using the following program:
Levels of mouse cytokine amplicons were normalized to an internal probe level (GAPDH) from the same samples. The following equations were used to calculate the relative increase in response to GA stimulation compared to the control sample (Enriched DCCM1 sample): […]

[2] = tested on: IL-5 secreted by LN cells; experiment: IL-5 secretion by GA-stimulated LN cells, MSD 9-plex ELISA (Example II); type: cell-based, mouse; settings: for IL-5 secretion response ratio (treated cell medium to control DCCM1 medium): 21 hr
Experimental: Animals at 8 weeks of age were immunized by injection into four footpads using a 1 mL syringe with a 27-G, 1⁄2-inch needle. […] Ten days post-immunization, immunized animals were sacrificed via cervical dislocation. […] The LN cells were isolated by pressing the LN with the plunger end of a sterile syringe. […] Trypan blue exclusion method was used to determine the cell density of viable cells in the suspension. […] Cat. […] LN cells were plated into a 24-well tissue culture plate for drug stimulation. […] Cell debris was removed by centrifugation at ca. 200×g for 10 minutes at 4° C. Cytokines secreted by treated cells were determined on the day of collection by ELISA using mouse TH 1/TH 2 9-Plex Tissue Culture Kit (Meso Scale Discovery; Cat No. […]-2, Lot #: K0032839) which detects Th1 cytokines (IFN-γ, IL-2, IL-12, IL-1β, TNF-α, CXCL1) and Th2 cytokines (IL-4, IL-5 and IL-10). For IFN-γ, culture media also were assayed at 45 hours using mouse IFN-γ Tissue Culture Kit (Meso Scale Discovery; Cat No. […] For the positive control, 0.5 mL of LN cells (5×10^6 cells/well) were treated with 0.5 mL of ConA (5 μg/mL). For the negative control, 0.5 mL of LN cells (5×10^6 cells/well) were treated with 0.5 mL of MBP (20 μg/mL). The LN cells with mock stimulation (enriched DCCM1 medium) were used to monitor the background level of a cytokine. For the cytokine assays, calibration standards or samples were incubated in the MULTI-SPOT or the SINGLE-SPOT plate and each cytokine bound to its corresponding capture antibody. All test samples were run in duplicate. The amount of each cytokine on its distinct spot was quantified using a cytokine-specific detection antibody labeled with MSD SULFO-TAGTM reagent. Electrochemiluminescent signals from immobilized SULFO-TAGTM-labeled complexes on each spot from each well were captured by the MSD SECTOR Imager 6000, which produces a signal directly proportional to the amount of captured cytokine in a test sample. The levels of cytokines in test samples were derived by interpolation from calibration curves with calibration standards of known concentrations using reagents provided with the MSD kits. Kits were used according to the manufacturer's protocols. […] Data are expressed as a response ratio of cytokine concentration in treated cell medium to control DCCM1 medium.

[3] = BALB/cByJ, immunized GA Intraplantar
[4] = BALB/cByJ, immunized GA Lower Limb
[5] = BALB/cByJ, immunized Mannitol Intraplantar
[6] = C57BL10J, immunized GA Intraplantar
[7] = C57BL10J, immunized GA Lower Limb
[8] = C57BL10J, immunized Mannitol Intraplantar
[9] = CD-1, immunized GA Intraplantar
[10] = CD-1, immunized Mannitol Intraplantar

Molecule | IFN-γ mRNA Fold Change ([1]; Experiment 1, 2.5 μg/mL) [fold] | IFN-γ mRNA Fold Change ([1]; Experiment 2, 2.5 μg/mL) [fold] | IFN-γ mRNA Fold Change ([1]; Experiment 3, 2.5 μg/mL) [fold] | IL-5 secretion response ratio (treated cell medium to control DCCM1 medium) [2, 3] | IL-5 secretion response ratio (treated cell medium to control DCCM1 medium) [2, 4] | IL-5 secretion response ratio (treated cell medium to control DCCM1 medium) [2, 5] | IL-5 secretion response ratio (treated cell medium to control DCCM1 medium) [2, 6] | IL-5 secretion response ratio (treated cell medium to control DCCM1 medium) [2, 7] | IL-5 secretion response ratio (treated cell medium to control DCCM1 medium) [2, 8] | IL-5 secretion response ratio (treated cell medium to control DCCM1 medium) [2, 9] | IL-5 secretion response ratio (treated cell medium to control DCCM1 medium) ([2]; CD-1, immunized GA Lower Limb) | IL-5 secretion response ratio (treated cell medium to control DCCM1 medium) [2, 10] | induction of IFN-γ mRNA (in words) ([1]; SJL/J, different concentrations of GA vs unstimulated LN cells) | induction of IFN-γ mRNA ([1]; SJL/J, stimulation with 2.5 to 10 μg/mL GA, three experiments) [fold] | IL-5 secretion, dose response to GA (in words) ([2]; BALB/cByJ cells and CD1 cells) | IFN-γ mRNA Fold Change ([1]; Experiment 1, 10 μg/mL) [fold] | IFN-γ mRNA Fold Change ([1]; Experiment 2, 10 μg/mL) [fold] | IFN-γ mRNA Fold Change ([1]; Experiment 3, 10 μg/mL) [fold] | IFN-γ mRNA expression level in response to MBP treatment ([1]; SJL/J, MBP 10 μg/mL, all PCR runs) [fold]
Concanavalin A [ConA, reference compound] | 1.9 | 1.6 | 2.6 | 22.09 | 14.24 | 13.33 | 8.16 | 5.24 | 3.93 | 13.49 | 6.35 | 7.11 |  |  |  |  |  |  | 
L-glutamic acid polymer with L-alanine, L-lysine and L-tyrosine, acetate (salt) [GA] |  |  |  |  |  |  |  |  |  |  |  |  | weak induction | ≥ 2 | dose-dependent manner |  |  |  | 
B1 |  |  |  | 1.22 | 0.99 | 1.07 | 1.31 | 0.85 | 0.99 | 1.33 | 1.00 | 1.16 |  |  |  | 0.8 | 1.3 | 1.1 | ≤ 2
